Test [1] has as its target T1, hOT7T175 (Homo sapiens, UniProt Q969F8, L364H). Put plainly: hOT7T175 receptor binding activity: binding inhibition of Cy-5-labeled metastin (40-54) on hOT7T175-expressed CHO cells. On the set-up: expressed in transfected cells; host or cells: CHO cells. As to the method:
Assay for hOT7T175 Receptor Binding Activity
h0T7T175-Expressed CHO cells were cultured in MEM-cc medium (nucleic acid-free) containing 10% dialyzed serum. The medium was removed and the adherent cells were washed with PBS. Then, PBS containing 5 mM EDTA was added and the cells were scraped from a flask with a cell scraper. […] To each well of a 96-Well Black Clear Bottom Plate (Applied Biosystems, Inc.), 10 μL of assay buffer containing 1% dimethylsulfoxide was added to examine total binding, 10 μL of 10 μM non-labeled peptide (having the same amino acid sequence as that of the labeled one) solution diluted with assay buffer to examine non-specific binding, and 10 μL of a test compound diluted with assay buffer to examine the binding inhibition activity of the test compound, respectively. Furthermore, 90 μL each of the cell suspension was dispensed to each well. […] The specific binding is a value obtained by subtracting the non-specific binding from the total binding.

For test [2], the target named is T1, hOT7T175. Put plainly: Intracellular Ca ion level-increasing activity using FLIPR in hOT7T175/CHO. The format is cell-based. On the set-up: expressed in transfected cells; host or cells: CHO/dhfr- cells, obtained from ATCC. Conditions: relative, Metastin (1-54) = 1.

As a reminder, the IC50 is the concentration that gives 50% inhibition. Read a low IC50 as greater potency.

Square brackets hold non-standard residues; d marks the D form. Peptide text beside a SMILES is read from it. * marks the point of attachment. Cyclohexanecarbonyl = O=C(C1CCCCC1)*; Arg(Me) = CNC(=N)NCCC[C@H](N)C(=O)O; Bta = N[C@@H](Cc1csc2ccccc12)C(=O)O; Fmoc = O=C(OCC1c2ccccc2-c2ccccc21)*; azaGly = NNC(=O)O

T1 sequence (Q969F8 whole entry L364H): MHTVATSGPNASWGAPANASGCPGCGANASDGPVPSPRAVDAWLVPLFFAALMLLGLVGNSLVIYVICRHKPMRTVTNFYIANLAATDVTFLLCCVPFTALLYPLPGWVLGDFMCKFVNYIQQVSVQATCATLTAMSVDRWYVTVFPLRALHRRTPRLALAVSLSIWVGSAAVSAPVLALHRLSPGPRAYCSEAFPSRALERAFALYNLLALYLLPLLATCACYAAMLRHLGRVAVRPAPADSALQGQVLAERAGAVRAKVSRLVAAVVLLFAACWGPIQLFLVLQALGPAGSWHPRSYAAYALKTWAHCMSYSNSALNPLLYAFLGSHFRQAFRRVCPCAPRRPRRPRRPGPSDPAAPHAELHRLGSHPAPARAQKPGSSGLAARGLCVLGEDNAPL

The compound `CC(C)C[C@H](NC(=O)[C@H](CO)NC(=O)[C@H](Cc1ccccc1)NC(=O)[C@H](CO)NC(=O)[C@H](CC(N)=O)NC(=O)[C@H](Cc1c[nH]c2ccccc12)NC(=O)[C@H](CC(N)=O)NC(=O)[C@@H](N)Cc1ccc(O)cc1)C(=O)N[C@@H](CCCNC(=N)N)C(=O)N[C@@H](Cc1ccccc1)C(N)=O` [Compound No. 101] (H-YNWNSFSLRF-NH2) registered an IC50 on hOT7T175 [1] of 100 nM. In addition, the “Specific Activity (intracellular Ca ion level-increasing activity)” value on hOT7T175 [2] came to 10.
The matching figures for `CC(C)C[C@H](NC(=O)CNC(=O)[C@H](Cc1ccccc1)NC(=O)[C@H](CO)NC(=O)[C@H](CC(N)=O)NC(=O)[C@H](Cc1c[nH]c2ccccc12)NC(=O)[C@H](CC(N)=O)NC(=O)[C@H](Cc1ccc(O)cc1)NC(=O)[C@H](CC(N)=O)NC(=O)[C@@H]1CCCN1C(=O)[C@@H](N)CC(C)C)C(=O)N[C@@H](CCCNC(=N)N)C(=O)N[C@@H](Cc1ccccc1)C(N)=O` [Compound No. 32, reference compound]: 25 nM and 10.
The matching figures for `CNC(=N)NCCC[C@H](NC(=O)[C@H](CC(C)C)NC(=O)NNC(=O)[C@H](Cc1ccccc1)NC(=O)[C@H](CO)NC(=O)[C@H](CC(N)=O)NC(=O)C1CCCCC1)C(=O)N[C@@H](Cc1ccccc1)C(N)=O` [Compound No. 278, Cyclohexanecarbonyl-Asn-Ser-Phe-AzaGly-Leu-Arg(Me)-Phe-NH2] (Cyclohexanecarbonyl-NSF[azaGly]L[Arg(Me)]F-NH2): 110 nM and 2.
On the same counts, the results for `CNC(=N)NCCC[C@H](NC(=O)[C@H](CC(C)C)NC(=O)NNC(=O)[C@H](Cc1ccccc1)NC(=O)[C@H](CO)NC(=O)[C@H](CC(N)=O)NC(=O)[C@H](Cc1c[nH]c2ccccc12)NC(C)=O)C(=O)N[C@@H](Cc1ccccc1)C(N)=O` [Compound No. 272, Acetyl-Trp-Asn-Ser-Phe-AzaGly-Leu-Arg(Me)-Phe-NH2] (Ac-WNSF[azaGly]L[Arg(Me)]F-NH2) are 540 nM and 2.
On hOT7T175 [1], `CC(C)C[C@H](NC(=O)CNC(=O)[C@H](Cc1ccccc1)NC(=O)[C@H](CO)NC(=O)[C@H](CC(N)=O)NC(=O)[C@H](Cc1c[nH]c2ccccc12)NC(=O)[C@H](CC(N)=O)NC(=O)[C@@H](N)Cc1ccc(O)cc1)C(=O)N[C@@H](CCCNC(=N)N)C(=O)N[C@@H](Cc1csc2ccccc12)C(N)=O` [Compound No. 189] (H-YNWNSFGLR[Bta]-NH2; N-terminus assumed) had an IC50 of 230 nM. Moreover, the “Specific Activity (intracellular Ca ion level-increasing activity)” value on hOT7T175 [2] stood at 10.
On the same counts, the results for `CC(C)C[C@H](NC(=O)CNC(=O)[C@H](Cc1ccccc1)NC(=O)[C@H](CO)NC(=O)[C@H](CC(N)=O)NC(=O)[C@H](Cc1c[nH]c2ccccc12)NC(=O)[C@H](CC(N)=O)NC(=O)[C@@H](N)CC(=O)O)C(=O)N[C@@H](CCCNC(=N)N)C(=O)N[C@@H](Cc1ccccc1)C(N)=O` [Compound No. 75] (H-DNWNSFGLRF-NH2) are 880 nM and 1.
In the case of `CNC(=N)NCCC[C@H](NC(=O)[C@H](CC(C)C)NC(=O)CNC(=O)[C@H](Cc1ccccc1)NC(=O)[C@H](CO)NC(=O)[C@H](CC(N)=O)NC(=O)[C@@H](Cc1c[nH]c2ccccc12)NC(=O)[C@H](CC(N)=O)NC(=O)[C@@H](N)Cc1ccc(O)cc1)C(=O)N[C@@H](Cc1ccccc1)C(N)=O` [Compound No. 143, Tyr-Asn-D-Trp-Asn-Ser-Phe-Gly-Leu-Arg(Me)-Phe-NH2], at hOT7T175 [1], the IC50 is 7.7 nM. Besides, at hOT7T175 [2], the “Specific Activity (intracellular Ca ion level-increasing activity)” value was 3.
On to `CNC(=N)NCCC[C@H](NC(=O)[C@H](CC(C)C)NC(=O)CNC(=O)[C@H](Cc1ccccc1)NC(=O)[C@H](CO)NC(=O)[C@H](CC(N)=O)NC(=O)[C@H](CO)NC(=O)[C@H](N)Cc1ccc(O)cc1)C(=O)N[C@@H](Cc1ccccc1)C(N)=O` [Compound No. 226] (H-[dY]SNSFGL[Arg(Me)]F-NH2), for which, on hOT7T175 [1], the IC50 amounted to 100 nM.
On the same count and under the same terms, the same measure for `CNC(N)=NCCC[C@H](NC(=O)[C@H](CC(C)C)NC(=O)NNC(=O)[C@H](Cc1ccccc1)NC(=O)[C@H](CO)NC(=O)[C@H](CC(N)=O)NC(=O)[C@H](CO)NC(=O)[C@H](CC(N)=O)NC(=O)[C@H](N)Cc1ccc(O)cc1)C(=O)N[C@@H](Cc1ccccc1)C(N)=O` [Compound No. 191, D-Tyr-Asn-Ser-Asn-Ser-Phe-AzaGly-Leu-Arg(Me)-Phe-NH2] (H-[dY]NSNSF[azaGly]L[Arg(Me)]F-NH2): 300 nM; for `CNC(=N)NCCC[C@H](NC(=O)[C@H](CC(C)C)NC(=O)CNC(=O)[C@H](Cc1ccccc1)NC(=O)[C@H](CO)NC(=O)[C@H](CC(N)=O)NC(=O)[C@H](Cc1c[nH]c2ccccc12)NC(=O)OCC1c2ccccc2-c2ccccc21)C(=O)N[C@@H](Cc1ccccc1)C(N)=O` [Compound No. 145, Fmoc-Trp-Asn-Ser-Phe-Gly-Leu-Arg(Me)-Phe-NH2] (Fmoc-WNSFGL[Arg(Me)]F-NH2): 120 nM.
On the same count and under the same terms, the result for `CC(C)C[C@H](NC(=O)CNC(=O)[C@H](Cc1ccccc1)NC(=O)[C@H](CO)NC(=O)[C@H](CC(N)=O)NC(=O)[C@H](Cc1c[nH]c2ccccc12)NC(=O)[C@H](CC(N)=O)NC(=O)[C@@H](N)Cc1ccc(O)cc1)C(=O)N[C@@H](CCCNC(=N)N(C)C)C(=O)N[C@@H](Cc1ccccc1)C(N)=O` [Compound No. 83] reads 25 nM; that for `CC(C)C[C@H](NC(=O)CNC(=O)[C@H](Cc1ccccc1)NC(=O)[C@H](CO)NC(=O)[C@H](CC(N)=O)NC(=O)[C@H](Cc1c[nH]c2ccccc12)NC(=O)[C@H](CC(C)C)NC(=O)[C@@H](N)Cc1ccc(O)cc1)C(=O)N[C@@H](CCCNC(=N)N)C(=O)N[C@@H](Cc1ccccc1)C(N)=O` [Compound No. 59] (H-YLWNSFGLRF-NH2), 340 nM.
Still for that read-out and setting: the same measure for `CC(C)C[C@H](NC(=O)CNC(=O)[C@H](Cc1ccccc1)NC(=O)[C@H](CO)NC(=O)[C@H](CC(N)=O)NC(=O)[C@H](Cc1c[nH]c2ccccc12)NC(=O)[C@@H](N)CC(N)=O)C(=O)N[C@@H](CCCNC(=N)N)C(=O)N[C@@H](Cc1ccccc1)C(N)=O` [Compound No. 4, des(1)-MS10, reference compound] (H-NWNSFGLRF-NH2; N-terminus assumed): 260 nM; for `CC[C@H](C)[C@H](NC(=O)[C@H](N)Cc1ccc(O)cc1)C(=O)N[C@@H](CC(N)=O)C(=O)N[C@@H](CO)C(=O)N[C@@H](Cc1ccccc1)C(=O)NNC(=O)N[C@@H](CC(C)C)C(=O)N[C@@H](CCCNC(=N)NC)C(=O)N[C@@H](Cc1ccccc1)C(N)=O` [Compound No. 240, D-Tyr-Ile-Asn-Ser-Phe-AzaGly-Leu-Arg(Me)-Phe-NH2] (H-[dY]INSF[azaGly]L[Arg(Me)]F-NH2): 17 nM.
Consider `CC(C)C[C@H](NC(=O)CNC(=O)[C@H](Cc1ccccc1)NC(=O)[C@H](CO)NC(=O)[C@H](CC(N)=O)NC(=O)[C@H](CO)NC(=O)[C@H](CC(N)=O)NC(=O)[C@@H](N)Cc1ccc(O)cc1)C(=O)N[C@@H](CCCNC(=N)N)C(=O)N[C@@H](Cc1ccccc1)C(N)=O` [Compound No. 69] (H-YNSNSFGLRF-NH2), for which the IC50 on hOT7T175 [1] turned out to be 83 nM.
At hOT7T175 [1], `CNC(N)=NCCC[C@H](NC(=O)[C@H](CC(C)C)NC(=O)NNC(=O)[C@H](Cc1ccccc1)NC(=O)[C@H](CO)NC(=O)[C@H](CC(N)=O)NC(=O)[C@H](CO)NC(=O)[C@H](N)Cc1ccc(O)cc1)C(=O)N[C@@H](Cc1ccccc1)C(N)=O` [Compound No. 239, D-Tyr-Ser-Asn-Ser-Phe-AzaGly-Leu-Arg(Me)-Phe-NH2] (H-[dY]SNSF[azaGly]L[Arg(Me)]F-NH2) gave an IC50 of 120 nM.
The compound `CC(C)C[C@H](NC(=O)CNC(=O)[C@H](Cc1ccc(O)cc1)NC(=O)[C@H](CO)NC(=O)[C@H](CC(N)=O)NC(=O)[C@H](Cc1c[nH]c2ccccc12)NC(=O)[C@H](CC(N)=O)NC(=O)[C@@H](N)Cc1ccc(O)cc1)C(=O)N[C@@H](CCCNC(=N)N)C(=O)N[C@@H](Cc1ccccc1)C(N)=O` [Compound No. 150] (H-YNWNSYGLRF-NH2) came in with an IC50 on hOT7T175 [1] of 320 nM.
The same measure, in the same setting: the result for `CNC(N)=NCCC[C@H](NC(=O)[C@H](CC(C)C)NC(=O)NNC(=O)[C@H](Cc1ccccc1)NC(=O)[C@H](CO)NC(=O)[C@H](CC(N)=O)NC(=O)[C@H](Cc1ccccc1)NC(=O)[C@@H](CC(N)=O)NC(=O)[C@H](N)Cc1ccc(O)cc1)C(=O)N[C@@H](Cc1ccccc1)C(N)=O` [Compound No. 257, D-Tyr-D-Asn-Phe-Asn-Ser-Phe-AzaGly-Leu-Arg(Me)-Phe-NH2] (H-[dY][dN]FNSF[azaGly]L[Arg(Me)]F-NH2) reads 40 nM; that for `CNC(N)=NCCC[C@H](NC(=O)[C@H](CC(C)C)NC(=O)NNC(=O)[C@H](Cc1ccccc1)NC(=O)[C@H](CO)NC(=O)[C@H](CC(N)=O)NC(=O)[C@@H](NC(=O)[C@H](CC(N)=O)NC(=O)[C@H](N)Cc1ccc(O)cc1)[C@@H](C)O)C(=O)N[C@@H](Cc1ccccc1)C(N)=O` [Compound No. 221, D-Tyr-Asn-Thr-Asn-Ser-Phe-AzaGly-Leu-Arg(Me)-Phe-NH2] (H-[dY]NTNSF[azaGly]L[Arg(Me)]F-NH2), 95 nM; that for `C/N=C(/NC)NCCC[C@H](NC(=O)[C@H](CC(C)C)NC(=O)CNC(=O)[C@H](Cc1ccccc1)NC(=O)[C@H](CO)NC(=O)[C@H](CC(N)=O)NC(=O)[C@H](Cc1c[nH]c2ccccc12)NC(=O)[C@H](CC(N)=O)NC(=O)[C@@H](N)Cc1ccc(O)cc1)C(=O)N[C@@H](Cc1ccccc1)C(N)=O` [Compound No. 129], 83 nM.

(Values after patent US8361968B2 (Takeda Pharmaceutical Company Limited, priority 2002, dated 2013).)
